Measured values taken from the supplement of paper PMC8882468.
Values joined by “and” are separate entries in the source; they are usually repeats but may differ in a detail not shown here. Equal entries are not always repeated. ± gives the standard deviation of the averaged measurements.

Columns and labels:
Experiment in all cases: CTG-3D luminescence at 96 h relative to day-0 seeding control (ratio to day 0); higher = more growth / less cytotoxicity
[1] = system: HCI-003.E2 (organoid from an ER-positive breast cancer xenograft)
Method: (§1)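 PDxO 3D drug screen (set 2), 8-point dose, 96 h; CTG-3D luminescence normalised to day-0 seeding control (mean of 4 wells each).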

[2] = system: HCI-005.E2 (organoid from a breast cancer xenograft with a HER2-positive history)
Method: as §1

[3] = system: HCI-008 (organoid from a HER2-enriched breast cancer xenograft)
Method: as §1

[4] = system: HCI-011.E2 (organoid from an ER-positive breast cancer xenograft)
Method: as §1

[5] = system: HCI-016 (organoid from a triple-negative breast cancer xenograft)
Method: as §1

[6] = system: HCI-019 (organoid from a triple-negative breast cancer xenograft)
Method: as §1

[7] = system: MDA-MB-231
Method: as §1

CC/C(=C(\c1ccc(O)cc1)c1ccc(OCCN(C)C)cc1)c1ccccc1 [4-hydroxytamoxifen]
CTG-3D luminescence at 96 h ([1]; 12.5 pM): 2.27 ± 0.25
CTG-3D luminescence at 96 h ([1]; 0.00025 µM): 2.32 ± 0.47
CTG-3D luminescence at 96 h ([1]; 0.005 µM): 2.33 ± 0.64
CTG-3D luminescence at 96 h ([1]; 0.1 µM): 2.5 ± 0.95
CTG-3D luminescence at 96 h ([1]; 1 µM): 1.94 ± 0.076
CTG-3D luminescence at 96 h ([1]; 10 µM): 1.18 ± 0.44
CTG-3D luminescence at 96 h ([1]; 100 µM): 0.0128 ± 0.00097
CTG-3D luminescence at 96 h ([1]; 625 fM): 2.7 ± 0.64
CTG-3D luminescence at 96 h ([2]; 12.5 pM): 1.68 ± 0.34
CTG-3D luminescence at 96 h ([2]; 0.00025 µM): 1.99 ± 0.4
CTG-3D luminescence at 96 h ([2]; 0.005 µM): 2.22 ± 0.4
CTG-3D luminescence at 96 h ([2]; 0.1 µM): 2.35 ± 0.56
CTG-3D luminescence at 96 h ([2]; 1 µM): 2.26 ± 0.97
CTG-3D luminescence at 96 h ([2]; 10 µM): 2.01 ± 0.43
CTG-3D luminescence at 96 h ([2]; 100 µM): 0.0139 ± 0.0031
CTG-3D luminescence at 96 h ([2]; 625 fM): 2.45 ± 0.34
CTG-3D luminescence at 96 h ([3]; 12.5 pM, days in culture: 325): 1.16
CTG-3D luminescence at 96 h ([3]; 12.5 pM, days in culture: 340): 1.38
CTG-3D luminescence at 96 h ([3]; 12.5 pM, days in culture: 354): 1.2
CTG-3D luminescence at 96 h ([3]; 12.5 pM, days in culture: 382): 1.86
CTG-3D luminescence at 96 h ([3]; 0.00025 µM, days in culture: 325): 3.13
CTG-3D luminescence at 96 h ([3]; 0.00025 µM, days in culture: 340): 1.51
CTG-3D luminescence at 96 h ([3]; 0.00025 µM, days in culture: 354): 1.03
CTG-3D luminescence at 96 h ([3]; 0.00025 µM, days in culture: 382): 1.74
CTG-3D luminescence at 96 h ([3]; 0.005 µM, days in culture: 325): 1.6
CTG-3D luminescence at 96 h ([3]; 0.005 µM, days in culture: 340): 1.18
CTG-3D luminescence at 96 h ([3]; 0.005 µM, days in culture: 354): 2.12
CTG-3D luminescence at 96 h ([3]; 0.005 µM, days in culture: 382): 1.28
CTG-3D luminescence at 96 h ([3]; 0.1 µM, days in culture: 325): 3.49
CTG-3D luminescence at 96 h ([3]; 0.1 µM, days in culture: 340): 1.09
CTG-3D luminescence at 96 h ([3]; 0.1 µM, days in culture: 354): 1.34
CTG-3D luminescence at 96 h ([3]; 0.1 µM, days in culture: 382): 1.63
CTG-3D luminescence at 96 h ([3]; 1 µM, days in culture: 325): 3.48
CTG-3D luminescence at 96 h ([3]; 1 µM, days in culture: 340): 1.46
CTG-3D luminescence at 96 h ([3]; 1 µM, days in culture: 354): 1.26
CTG-3D luminescence at 96 h ([3]; 1 µM, days in culture: 382): 0.792
CTG-3D luminescence at 96 h ([3]; 10 µM, days in culture: 325): 2.12
CTG-3D luminescence at 96 h ([3]; 10 µM, days in culture: 354): 1.3
CTG-3D luminescence at 96 h ([3]; 10 µM, days in culture: 382): 1.56
CTG-3D luminescence at 96 h ([3]; 100 µM, days in culture: 325): 0.0259
CTG-3D luminescence at 96 h ([3]; 100 µM, days in culture: 340): 0.00621
CTG-3D luminescence at 96 h ([3]; 100 µM, days in culture: 354): 0.00452
CTG-3D luminescence at 96 h ([3]; 100 µM, days in culture: 382): 0.0061
CTG-3D luminescence at 96 h ([3]; 625 fM, days in culture: 325): 1.52
CTG-3D luminescence at 96 h ([3]; 625 fM, days in culture: 340): 1.32
CTG-3D luminescence at 96 h ([3]; 625 fM, days in culture: 354): 0.999
CTG-3D luminescence at 96 h ([3]; 625 fM, days in culture: 382): 1.74
CTG-3D luminescence at 96 h ([4]; 12.5 pM): 1.35 ± 0.045
CTG-3D luminescence at 96 h ([4]; 12.5 pM, days in culture: 74): 2.1
CTG-3D luminescence at 96 h ([4]; 0.00025 µM): 1.71 ± 0.016
CTG-3D luminescence at 96 h ([4]; 0.00025 µM, days in culture: 74): 1.95
CTG-3D luminescence at 96 h ([4]; 0.005 µM): 1.2 ± 0.19
CTG-3D luminescence at 96 h ([4]; 0.005 µM, days in culture: 74): 2.01
CTG-3D luminescence at 96 h ([4]; 0.1 µM): 1.83 ± 0.028
CTG-3D luminescence at 96 h ([4]; 0.1 µM, days in culture: 74): 2.04
CTG-3D luminescence at 96 h ([4]; 1 µM): 1.35 ± 0.27
CTG-3D luminescence at 96 h ([4]; 1 µM, days in culture: 74): 1.63
CTG-3D luminescence at 96 h ([4]; 10 µM): 1.72 ± 0.56
CTG-3D luminescence at 96 h ([4]; 10 µM, days in culture: 74): 1.31
CTG-3D luminescence at 96 h ([4]; 100 µM): 0.0138 ± 0.0032
CTG-3D luminescence at 96 h ([4]; 100 µM, days in culture: 74): -0.00194
CTG-3D luminescence at 96 h ([4]; 625 fM): 1.77 ± 0.041
CTG-3D luminescence at 96 h ([4]; 625 fM, days in culture: 74): 2.23
CTG-3D luminescence at 96 h ([5]; 12.5 pM, days in culture: 305): 2.77
CTG-3D luminescence at 96 h ([5]; 12.5 pM, days in culture: 327): 0.944
CTG-3D luminescence at 96 h ([5]; 12.5 pM, days in culture: 341): 2.5
CTG-3D luminescence at 96 h ([5]; 12.5 pM, days in culture: 397): 1.82
CTG-3D luminescence at 96 h ([5]; 0.00025 µM, days in culture: 305): 4.59
CTG-3D luminescence at 96 h ([5]; 0.00025 µM, days in culture: 327): 0.968
CTG-3D luminescence at 96 h ([5]; 0.00025 µM, days in culture: 341): 1.22
CTG-3D luminescence at 96 h ([5]; 0.00025 µM, days in culture: 397): 2.24
CTG-3D luminescence at 96 h ([5]; 0.005 µM, days in culture: 305): 2.65
CTG-3D luminescence at 96 h ([5]; 0.005 µM, days in culture: 327): 2.39
CTG-3D luminescence at 96 h ([5]; 0.005 µM, days in culture: 341): 2.22
CTG-3D luminescence at 96 h ([5]; 0.005 µM, days in culture: 397): 1.56
CTG-3D luminescence at 96 h ([5]; 0.1 µM, days in culture: 305): 4.18
CTG-3D luminescence at 96 h ([5]; 0.1 µM, days in culture: 327): 2.26
CTG-3D luminescence at 96 h ([5]; 0.1 µM, days in culture: 341): 1.54
CTG-3D luminescence at 96 h ([5]; 0.1 µM, days in culture: 397): 1.83
CTG-3D luminescence at 96 h ([5]; 1 µM, days in culture: 305): 2.47
CTG-3D luminescence at 96 h ([5]; 1 µM, days in culture: 327): 1.5
CTG-3D luminescence at 96 h ([5]; 1 µM, days in culture: 341): 1.41
CTG-3D luminescence at 96 h ([5]; 1 µM, days in culture: 397): 1.91
CTG-3D luminescence at 96 h ([5]; 10 µM, days in culture: 305): 1.67
CTG-3D luminescence at 96 h ([5]; 10 µM, days in culture: 327): 1.58
CTG-3D luminescence at 96 h ([5]; 10 µM, days in culture: 341): 1.48
CTG-3D luminescence at 96 h ([5]; 10 µM, days in culture: 397): 2.17
CTG-3D luminescence at 96 h ([5]; 100 µM, days in culture: 305): 0.0261
CTG-3D luminescence at 96 h ([5]; 100 µM, days in culture: 327): 0.0115
CTG-3D luminescence at 96 h ([5]; 100 µM, days in culture: 341): 0.00227
CTG-3D luminescence at 96 h ([5]; 100 µM, days in culture: 397): 0.0134
CTG-3D luminescence at 96 h ([5]; 625 fM, days in culture: 305): 4.99
CTG-3D luminescence at 96 h ([5]; 625 fM, days in culture: 327): 1.27
CTG-3D luminescence at 96 h ([5]; 625 fM, days in culture: 341): 2.1
CTG-3D luminescence at 96 h ([5]; 625 fM, days in culture: 397): 2
CTG-3D luminescence at 96 h ([6]; 12.5 pM, days in culture: 173): 1.97
CTG-3D luminescence at 96 h ([6]; 12.5 pM, days in culture: 194): 1.24
CTG-3D luminescence at 96 h ([6]; 12.5 pM, days in culture: 215): 2.34
CTG-3D luminescence at 96 h ([6]; 0.00025 µM, days in culture: 173): 1.2
CTG-3D luminescence at 96 h ([6]; 0.00025 µM, days in culture: 194): 0.815
CTG-3D luminescence at 96 h ([6]; 0.00025 µM, days in culture: 215): 1.56
CTG-3D luminescence at 96 h ([6]; 0.005 µM, days in culture: 173): 1.04
CTG-3D luminescence at 96 h ([6]; 0.005 µM, days in culture: 194): 2.23
CTG-3D luminescence at 96 h ([6]; 0.005 µM, days in culture: 215): 1.23
CTG-3D luminescence at 96 h ([6]; 0.1 µM, days in culture: 173): 1.81
CTG-3D luminescence at 96 h ([6]; 0.1 µM, days in culture: 194): 0.96
CTG-3D luminescence at 96 h ([6]; 0.1 µM, days in culture: 215): 1.28
CTG-3D luminescence at 96 h ([6]; 1 µM, days in culture: 173): 1.85
CTG-3D luminescence at 96 h ([6]; 1 µM, days in culture: 194): 2.13
CTG-3D luminescence at 96 h ([6]; 1 µM, days in culture: 215): 1.14
CTG-3D luminescence at 96 h ([6]; 10 µM, days in culture: 173): 0.914
CTG-3D luminescence at 96 h ([6]; 10 µM, days in culture: 194): 0.944
CTG-3D luminescence at 96 h ([6]; 10 µM, days in culture: 215): 0.473
CTG-3D luminescence at 96 h ([6]; 100 µM, days in culture: 173): 0.0117
CTG-3D luminescence at 96 h ([6]; 100 µM, days in culture: 194): 0.00421
CTG-3D luminescence at 96 h ([6]; 100 µM, days in culture: 215): 0.00476
CTG-3D luminescence at 96 h ([6]; 625 fM, days in culture: 173): 1.34
CTG-3D luminescence at 96 h ([6]; 625 fM, days in culture: 194): 2.45
CTG-3D luminescence at 96 h ([6]; 625 fM, days in culture: 215): 1.5
CTG-3D luminescence at 96 h ([7]; 12.5 pM): 5.74 and 4.89
CTG-3D luminescence at 96 h ([7]; 0.00025 µM): 5.63 and 4.98
CTG-3D luminescence at 96 h ([7]; 0.005 µM): 5.56 and 5.21
CTG-3D luminescence at 96 h ([7]; 0.1 µM): 5.42 and 5.04
CTG-3D luminescence at 96 h ([7]; 1 µM): 5.45 and 5.21
CTG-3D luminescence at 96 h ([7]; 10 µM): 4.78 and 4.53
CTG-3D luminescence at 96 h ([7]; 100 µM): 0.0254 and 0.0304
CTG-3D luminescence at 96 h ([7]; 625 fM): 5.5 and 5.05
